Experimental data as given in article PMC5418449, “Characterisation of CCT271850, a selective, oral and potent MPS1 inhibitor, used to directly measure in vivo MPS1 inhibition vs therapeutic efficacy” (British Journal of Cancer, 2017).
Where two headings read alike, the source gives them in different places.

Assays:
011B = system: 011B; design: MTT antiproliferation assay, absorbance at 570 nm, human cancer cell line panel; settings: 3-day MTT; inhibitor; read-out: Table S1. IC50 of CCT271850 determined by MTT and clonogenic assays (CA). / All cell lines were tested at least 2 times. / 3-day MTT
Experimental: (§1) Cell lines were obtained from the American Type Culture Collection and grown in their recommended culture medium, supplemented with 10% FBS at 37 °C in 5% CO2. In-house authentication of cell lines by SNP profiling was carried out and cultured cells were passaged for less than 6 months before replacement from early-passage frozen stocks. Cells were regularly screened for Mycoplasma, using a PCR-based assay (VenorGem; Minerva Biolabs, Berlin, Germany). Transfections were carried out at ∼80% confluency with the plasmids indicated, using Lipofectamine LTX (15338030, Life Technologies, Carlsbad, CA, USA) according to the manufacturer's instructions. Cell proliferation assays were carried out by colorimetric MTT method (Sigma, St Louis, MO, USA) as described elsewhere ([Mosmann, 1983]). Briefly, cells were plated in 96-well plates at 2000–5000 cells per well (depending on the cell line) followed by treatment with two-fold dilutions of 0–25 μM drug for 72 h. Absorbance was measured at 570 nm with the Wallac VICTOR2 1420 Multilabel Counter (PerkinElmer, Waltham, MA, USA). To evaluate CCT271850 antiproliferation effects in a large panel of human cancer cell lines, 91 cell lines were treated for 72 h and 14 days at different compound concentrations in growth inhibition assays. The growth inhibition values as measured by IC50 are summarised in Table 2 and Supplementary Table S1. […] Cell lines from colon and head and neck cancers were among the most sensitive.

Lon-HN5 = system: Lon-HN5; design: MTT antiproliferation assay, absorbance at 570 nm, human cancer cell line panel; settings: 3-day MTT; inhibitor; read-out: Table S1. IC50 of CCT271850 determined by MTT and clonogenic assays (CA). / All cell lines were tested at least 2 times. / 3-day MTT
Experimental: as §1

KGN = system: KGN; design: MTT antiproliferation assay, absorbance at 570 nm, human cancer cell line panel; settings: 3-day MTT; inhibitor; read-out: Table S1. IC50 of CCT271850 determined by MTT and clonogenic assays (CA). / All cell lines were tested at least 2 times. / 3-day MTT
Experimental: as §1

Capan-1 = system: Capan-1; design: MTT antiproliferation assay, absorbance at 570 nm, human cancer cell line panel; settings: 3-day MTT; inhibitor; read-out: Table S1. IC50 of CCT271850 determined by MTT and clonogenic assays (CA). / All cell lines were tested at least 2 times. / 3-day MTT
Experimental: as §1

SKOV3 = system: SKOV3; design: MTT antiproliferation assay, absorbance at 570 nm, human cancer cell line panel; settings: 3-day MTT; inhibitor; read-out: Table S1. IC50 of CCT271850 determined by MTT and clonogenic assays (CA). / All cell lines were tested at least 2 times. / 3-day MTT
Experimental: as §1

Kuramochi [1] = system: Kuramochi; design: MTT antiproliferation assay, absorbance at 570 nm, human cancer cell line panel; settings: 3-day MTT; inhibitor; read-out: Table S1. IC50 of CCT271850 determined by MTT and clonogenic assays (CA). / All cell lines were tested at least 2 times. / 3-day MTT
Experimental: as §1

PATU-8902 = system: PATU-8902; design: MTT antiproliferation assay, absorbance at 570 nm, human cancer cell line panel; settings: 3-day MTT; inhibitor; read-out: Table S1. IC50 of CCT271850 determined by MTT and clonogenic assays (CA). / All cell lines were tested at least 2 times. / 3-day MTT
Experimental: as §1

OVCAR4 = system: OVCAR4; design: MTT antiproliferation assay, absorbance at 570 nm, human cancer cell line panel; settings: 3-day MTT; inhibitor; read-out: Table S1. IC50 of CCT271850 determined by MTT and clonogenic assays (CA). / All cell lines were tested at least 2 times. / 3-day MTT
Experimental: as §1

CFPAC-1 = system: CFPAC-1; design: MTT antiproliferation assay, absorbance at 570 nm, human cancer cell line panel; settings: 3-day MTT; inhibitor; read-out: Table S1. IC50 of CCT271850 determined by MTT and clonogenic assays (CA). / All cell lines were tested at least 2 times. / 3-day MTT
Experimental: as §1

EF027 = system: EF027; design: MTT antiproliferation assay, absorbance at 570 nm, human cancer cell line panel; settings: 3-day MTT; inhibitor; read-out: Table S1. IC50 of CCT271850 determined by MTT and clonogenic assays (CA). / All cell lines were tested at least 2 times. / 3-day MTT
Experimental: as §1

EF021 = system: EF021; design: MTT antiproliferation assay, absorbance at 570 nm, human cancer cell line panel; settings: 3-day MTT; inhibitor; read-out: Table S1. IC50 of CCT271850 determined by MTT and clonogenic assays (CA). / All cell lines were tested at least 2 times. / 3-day MTT
Experimental: as §1

SW626 = system: SW626; design: MTT antiproliferation assay, absorbance at 570 nm, human cancer cell line panel; settings: 3-day MTT; inhibitor; read-out: Table S1. IC50 of CCT271850 determined by MTT and clonogenic assays (CA). / All cell lines were tested at least 2 times. / 3-day MTT
Experimental: as §1

PA-1 = system: PA-1; design: MTT antiproliferation assay, absorbance at 570 nm, human cancer cell line panel; settings: 3-day MTT; inhibitor; read-out: Table S1. IC50 of CCT271850 determined by MTT and clonogenic assays (CA). / All cell lines were tested at least 2 times. / 3-day MTT
Experimental: as §1

Suit-2 = system: Suit-2; design: MTT antiproliferation assay, absorbance at 570 nm, human cancer cell line panel; settings: 3-day MTT; inhibitor; read-out: Table S1. IC50 of CCT271850 determined by MTT and clonogenic assays (CA). / All cell lines were tested at least 2 times. / 3-day MTT
Experimental: as §1

BxPC-3 = system: BxPC-3; design: MTT antiproliferation assay, absorbance at 570 nm, human cancer cell line panel; settings: 3-day MTT; inhibitor; read-out: Table S1. IC50 of CCT271850 determined by MTT and clonogenic assays (CA). / All cell lines were tested at least 2 times. / 3-day MTT
Experimental: as §1

TOV21G = system: TOV21G; design: MTT antiproliferation assay, absorbance at 570 nm, human cancer cell line panel; settings: 3-day MTT; inhibitor; read-out: Table S1. IC50 of CCT271850 determined by MTT and clonogenic assays (CA). / All cell lines were tested at least 2 times. / 3-day MTT
Experimental: as §1

PATU-8988S = system: PATU-8988S; design: MTT antiproliferation assay, absorbance at 570 nm, human cancer cell line panel; settings: 3-day MTT; inhibitor; read-out: Table S1. IC50 of CCT271850 determined by MTT and clonogenic assays (CA). / All cell lines were tested at least 2 times. / 3-day MTT
Experimental: as §1

PANC-1 = system: PANC-1; design: MTT antiproliferation assay, absorbance at 570 nm, human cancer cell line panel; settings: 3-day MTT; inhibitor; read-out: Table S1. IC50 of CCT271850 determined by MTT and clonogenic assays (CA). / All cell lines were tested at least 2 times. / 3-day MTT
Experimental: as §1

HN15 = system: HN15; design: MTT antiproliferation assay, absorbance at 570 nm, human cancer cell line panel; settings: 3-day MTT; inhibitor; read-out: Table S1. IC50 of CCT271850 determined by MTT and clonogenic assays (CA). / All cell lines were tested at least 2 times. / 3-day MTT
Experimental: as §1

A2780 = system: A2780; design: MTT antiproliferation assay, absorbance at 570 nm, human cancer cell line panel; settings: 3-day MTT; inhibitor; read-out: Table S1. IC50 of CCT271850 determined by MTT and clonogenic assays (CA). / All cell lines were tested at least 2 times. / 3-day MTT
Experimental: as §1

OVCAR3 = system: OVCAR3; design: MTT antiproliferation assay, absorbance at 570 nm, human cancer cell line panel; settings: 3-day MTT; inhibitor; read-out: Table S1. IC50 of CCT271850 determined by MTT and clonogenic assays (CA). / All cell lines were tested at least 2 times. / 3-day MTT
Experimental: as §1

IGROV1 = system: IGROV1; design: MTT antiproliferation assay, absorbance at 570 nm, human cancer cell line panel; settings: 3-day MTT; inhibitor; read-out: Table S1. IC50 of CCT271850 determined by MTT and clonogenic assays (CA). / All cell lines were tested at least 2 times. / 3-day MTT
Experimental: as §1

CaoV3 = system: CaoV3; design: MTT antiproliferation assay, absorbance at 570 nm, human cancer cell line panel; settings: 3-day MTT; inhibitor; read-out: Table S1. IC50 of CCT271850 determined by MTT and clonogenic assays (CA). / All cell lines were tested at least 2 times. / 3-day MTT
Experimental: as §1

005A = system: 005A; design: MTT antiproliferation assay, absorbance at 570 nm, human cancer cell line panel; settings: 3-day MTT; inhibitor; read-out: Table S1. IC50 of CCT271850 determined by MTT and clonogenic assays (CA). / All cell lines were tested at least 2 times. / 3-day MTT
Experimental: as §1

Kuramochi [2] = system: Kuramochi; design: 14-day clonogenic growth inhibition assay, human cancer cell line panel; settings: 14-day clonogenic assay; inhibitor; read-out: Table S1. IC50 of CCT271850 determined by MTT and clonogenic assays (CA). / All cell lines were tested at least 2 times. / 14-day CA
Experimental: To evaluate CCT271850 antiproliferation effects in a large panel of human cancer cell lines, 91 cell lines were treated for 72 h and 14 days at different compound concentrations in growth inhibition assays. The growth inhibition values as measured by IC50 are summarised in Table 2 and Supplementary Table S1. […] Cell lines from colon and head and neck cancers were among the most sensitive.

Question: With `COc1cc(-c2cnn(C)c2)ccc1Nc1ncc2ccnc(N[C@@H](C)C(C)(C)C)c2n1` [34h, CCT271850] as the compound, how does the IC50 (011B) read?
Answer: 2.21 µM

Question: What about the IC50 (Lon-HN5) of the same compound?
Answer: 0.325 µM

Question: And the IC50 (KGN)?
Answer: 3.12 µM

Question: And the IC50 (Capan-1)?
Answer: 2.05 µM

Question: And the IC50 (SKOV3)?
Answer: > 100 µM

Question: And the IC50 (Kuramochi [1])?
Answer: 4.86 µM

Question: And the IC50 (PATU-8902)?
Answer: 0.51 µM

Question: What about the IC50 (OVCAR4) of the same compound?
Answer: 4.95 µM

Question: And the IC50 (CFPAC-1)?
Answer: 0.91 µM

Question: And the IC50 (EF027)?
Answer: 0.787 µM

Question: What about the IC50 (EF021) of the same compound?
Answer: 0.751 µM

Question: What about the IC50 (SW626) of the same compound?
Answer: 4.21 µM

Question: What about the IC50 (PA-1) of the same compound?
Answer: 2.25 µM

Question: What about the IC50 (Suit-2) of the same compound?
Answer: 0.435 µM

Question: And the IC50 (BxPC-3)?
Answer: 0.525 µM

Question: And the IC50 (TOV21G)?
Answer: 0.753 µM

Question: What about the IC50 (PATU-8988S) of the same compound?
Answer: 2.02 µM

Question: What about the IC50 (PANC-1) of the same compound?
Answer: 1.38 µM

Question: And the IC50 (HN15)?
Answer: 1.75 µM

Question: And the IC50 (A2780)?
Answer: 0.137 µM

Question: What about the IC50 (OVCAR3) of the same compound?
Answer: > 100 µM

Question: What about the IC50 (IGROV1) of the same compound?
Answer: 3.59 µM

Question: What about the IC50 (CaoV3) of the same compound?
Answer: 0.36 µM

Question: And the IC50 (005A)?
Answer: 0.94 µM

Question: What about the IC50 (Kuramochi [2]) of the same compound?
Answer: 0.034 µM
